Experimental data published in PubChem BioAssay (NCI).
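Cells were grown in 96-well plates and exposed to each compound for 48 hours at five concentrations; endpoints were interpolated linearly between bracketing concentrations, or set to the highest concentration if not reached. GI50 marks 50% less growth. Definition used: TGI = concentration required for complete inhibition of growth.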

How the values were obtained:
Assay in all cases: NCI anticancer screen, dose series, 48 h
SW-620 colon = system: SW-620 colon
NCI-H226 lung = system: NCI-H226 lung
MDA-MB-231 breast = system: MDA-MB-231 breast
NCI-H460 lung = system: NCI-H460 lung
COLO 205 colon = system: COLO 205 colon
MCF7 breast = system: MCF7 breast
RPMI-8226 leukemia = system: RPMI-8226 leukemia
HCT-15 colon = system: HCT-15 colon
SR leukemia = system: SR leukemia
SK-MEL-2 melanoma = system: SK-MEL-2 melanoma

Row | Compound | GI50 (SW-620 colon) [µM] | TGI (SW-620 colon) [µM] | GI50 (NCI-H226 lung) [µM] | TGI (NCI-H226 lung) [µM] | GI50 (MDA-MB-231 breast) [µM] | TGI (MDA-MB-231 breast) [µM] | GI50 (NCI-H460 lung) [µM] | TGI (NCI-H460 lung) [µM] | GI50 (COLO 205 colon) [µM] | TGI (COLO 205 colon) [µM] | GI50 (MCF7 breast) [µM] | TGI (MCF7 breast) [µM] | GI50 (RPMI-8226 leukemia) [µM] | TGI (RPMI-8226 leukemia) [µM] | GI50 (HCT-15 colon) [µM] | TGI (HCT-15 colon) [µM] | GI50 (SR leukemia) [µM] | TGI (SR leukemia) [µM] | GI50 (SK-MEL-2 melanoma) [µM] | TGI (SK-MEL-2 melanoma) [µM]
1 | Cc1ccnc2c1NC(=O)c1cccnc1N2C1CC1 | > 100 | > 100 | > 100 | > 100 | > 100 | > 100 | > 100 | > 100 | > 100 | > 100 | > 100 | > 100 | > 100 | > 100 | > 100 | > 100 | > 100 | > 100 | > 100 | > 100
2 | O=[N+]([O-])c1ccc2nc(N/N=C/c3ccc(O)cc3)sc2c1 | 4.91 | 27.2 | 17.5 | 62.8 | 6.06 | > 100 | 4.18 | 24.2 | 12.4 | 32.1 | 3.17 | 70.5 | 2.56 | 15.8 | 3.87 | > 100 | 3.07 | 20.7 | 4 | 25.7
3 | C[C@]12CC[C@@H]3c4ccc(O)cc4CC[C@H]3[C@@H]1CC[C@@H]2NS(=O)(=O)c1cccc(Br)c1 | 4.07 | 18 | 3.19 | 15.6 | 3.88 | 13.9 | 2.53 | 6.67 | 1.89 | 3.38 | 3.74 | 10.9 | 3.41 | 17.3 | 2.77 | 11.1 | 2.37 | 7.63 | 3.68 | 12
4 | O=C(Nc1ccc(-n2cc(-c3ccncc3)c(-c3ccc(Cl)c(O)c3)n2)cc1)c1cc(Cl)cc(Cl)c1 | 3.72 | > 28.8 | > 100 | > 100 | 0.802 | 4.01 | 4.03 | > 100 | 9.36 | > 100 | 6.21 | > 100 | 0.793 | 4.14 | 1.31 | > 21.8 | 3.33 | > 100 | 5.24 | > 100
5 | CS(=O)(=O)c1ccc(C(F)(F)F)cc1NC(=O)Nc1cnc(Oc2ccc(-c3cc(Cl)cnc3N)cc2)nc1 | 3.24 | 16.8 | 2.75 | 26.3 | 1.72 | 3.79 | 2.07 | 4.42 | 1.98 | 4.77 | 2.18 | 7.35 | 2.33 | 6.53 | 2.74 | 13.4 | 1.98 | 4.66 | 2.34 | 5.03
6 | Cc1cc(N2CCN(C)CC2)nc(NC2CCCC(Nc3ccnc4cc(Cl)ccc34)C2)n1 (centres undefined) | 2.48 | 10.8 | 3.01 | 10.3 | 1.78 | 4.25 | 2.16 | 5.07 | 1.68 | 3.45 | 1.39 | 4.45 | 1.68 | 4.95 | 0.973 | 3.1 | 0.643 | 5.23 | 1.99 | 4.38
7 | Nc1cc(C(F)F)c(-c2nc(N3[C@@H]4CC[C@H]3COC4)nc(N3[C@@H]4CC[C@H]3COC4)n2)cn1 | 0.803 | > 100 | 0.244 | > 21.9 | 0.406 | > 93.3 | 0.306 | > 100 | 0.329 | 14.5 | 0.189 | > 100 | 0.237 | – | 0.345 | > 100 | 0.191 | 21 | 0.388 | 4.96
8 | COc1ccc2[nH]cc(/C=C3\C(=O)Nc4ccccc43)c2c1 | 2.92 | 12.8 | 7.65 | 35.9 | 3.95 | 21.9 | 4.09 | 18.7 | 3.86 | 23.2 | 2.45 | 10.5 | 2.35 | 6.84 | 3.86 | 17.5 | 1.96 | 5.2 | 10.2 | 29.2
9 | O=C1OC(c2ccc([N+](=O)[O-])cc2)=N/C1=C\c1ccc(O)cc1 | – | > 100 | – | > 100 | – | > 100 | – | > 100 | – | > 100 | – | > 100 | – | > 100 | – | > 100 | – | > 100 | – | > 100
